According to ChEMBL document CHEMBL1909046, “DrugMatrix in vitro pharmacology data”:

Tests used:
[1] = DRUGMATRIX: GABAA, Muscimol, Central radioligand binding (ligand: [3H] Muscimol); assay type: cell membranes, Rattus norvegicus, Wistar, Brain, Membrane; settings: Not Active = under 50% inhibition at 10 µM
[2] = biological target: T1, 3-hydroxy-3-methylglutaryl-coenzyme A reductase (Homo sapiens, UniProt P04035); design: species or system Escherichia coli;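 note: enzyme inhibition assay of HMG-CoA reductase using radiolabeled [14C]HMG-CoA as substrate; in other assays of this panel Not Active means under 50% inhibition at 10 µM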
T1 sequence (P04035 whole entry): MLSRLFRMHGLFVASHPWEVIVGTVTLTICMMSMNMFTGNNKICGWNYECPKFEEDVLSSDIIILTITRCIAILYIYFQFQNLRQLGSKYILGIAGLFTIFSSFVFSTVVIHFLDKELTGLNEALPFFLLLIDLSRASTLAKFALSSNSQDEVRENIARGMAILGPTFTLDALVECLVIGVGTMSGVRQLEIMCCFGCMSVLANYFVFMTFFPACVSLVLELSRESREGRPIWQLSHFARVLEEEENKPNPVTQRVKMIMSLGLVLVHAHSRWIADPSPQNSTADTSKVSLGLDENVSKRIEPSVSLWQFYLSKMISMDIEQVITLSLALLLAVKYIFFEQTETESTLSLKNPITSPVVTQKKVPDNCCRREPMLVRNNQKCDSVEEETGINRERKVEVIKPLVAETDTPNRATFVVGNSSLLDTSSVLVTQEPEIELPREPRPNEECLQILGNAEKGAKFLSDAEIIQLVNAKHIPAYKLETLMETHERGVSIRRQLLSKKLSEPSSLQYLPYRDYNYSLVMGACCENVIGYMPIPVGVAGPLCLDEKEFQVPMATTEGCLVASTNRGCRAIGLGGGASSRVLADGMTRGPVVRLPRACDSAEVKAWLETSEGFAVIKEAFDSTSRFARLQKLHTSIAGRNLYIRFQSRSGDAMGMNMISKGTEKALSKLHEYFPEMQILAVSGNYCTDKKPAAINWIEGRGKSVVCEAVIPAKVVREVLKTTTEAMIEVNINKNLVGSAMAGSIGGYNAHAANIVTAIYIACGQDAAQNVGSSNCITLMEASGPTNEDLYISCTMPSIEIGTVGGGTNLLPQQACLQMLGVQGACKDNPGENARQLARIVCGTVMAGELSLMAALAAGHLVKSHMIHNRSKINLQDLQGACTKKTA

[3] = biological target: Kappa-type opioid receptor (Homo sapiens, UniProt P41145); assay: DRUGMATRIX: Opiate kappa (OP2, KOP) radioligand binding (ligand: [3H] Diprenorphine); assay type: cell membranes, HEK293, Membrane; settings: hek293; Not Active = under 50% inhibition at 10 µM
Sequence of Kappa-type opioid receptor (P41145 whole entry): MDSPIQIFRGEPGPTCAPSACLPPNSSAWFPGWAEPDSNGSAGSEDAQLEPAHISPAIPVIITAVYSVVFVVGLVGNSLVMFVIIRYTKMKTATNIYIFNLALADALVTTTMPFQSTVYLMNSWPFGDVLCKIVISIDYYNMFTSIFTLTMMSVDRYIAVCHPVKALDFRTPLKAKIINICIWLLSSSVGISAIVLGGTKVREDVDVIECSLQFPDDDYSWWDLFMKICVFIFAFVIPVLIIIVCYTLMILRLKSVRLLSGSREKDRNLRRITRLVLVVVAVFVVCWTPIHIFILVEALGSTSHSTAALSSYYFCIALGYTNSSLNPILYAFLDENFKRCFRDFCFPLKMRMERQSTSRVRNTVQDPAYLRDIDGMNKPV

[4] = biological target: T2, Polyunsaturated fatty acid lipoxygenase ALOX15 (Oryctolagus cuniculus, UniProt P12530); assay: biochemical; assay type: tissue-based, Reticulocytes; settings: reticulocytes;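 note: inhibition of 15-lipoxygenase enzyme activity measured with linoleic acid as the substrate; in other assays of this panel Not Active means under 50% inhibition at 10 µM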
T2 sequence (P12530 whole entry): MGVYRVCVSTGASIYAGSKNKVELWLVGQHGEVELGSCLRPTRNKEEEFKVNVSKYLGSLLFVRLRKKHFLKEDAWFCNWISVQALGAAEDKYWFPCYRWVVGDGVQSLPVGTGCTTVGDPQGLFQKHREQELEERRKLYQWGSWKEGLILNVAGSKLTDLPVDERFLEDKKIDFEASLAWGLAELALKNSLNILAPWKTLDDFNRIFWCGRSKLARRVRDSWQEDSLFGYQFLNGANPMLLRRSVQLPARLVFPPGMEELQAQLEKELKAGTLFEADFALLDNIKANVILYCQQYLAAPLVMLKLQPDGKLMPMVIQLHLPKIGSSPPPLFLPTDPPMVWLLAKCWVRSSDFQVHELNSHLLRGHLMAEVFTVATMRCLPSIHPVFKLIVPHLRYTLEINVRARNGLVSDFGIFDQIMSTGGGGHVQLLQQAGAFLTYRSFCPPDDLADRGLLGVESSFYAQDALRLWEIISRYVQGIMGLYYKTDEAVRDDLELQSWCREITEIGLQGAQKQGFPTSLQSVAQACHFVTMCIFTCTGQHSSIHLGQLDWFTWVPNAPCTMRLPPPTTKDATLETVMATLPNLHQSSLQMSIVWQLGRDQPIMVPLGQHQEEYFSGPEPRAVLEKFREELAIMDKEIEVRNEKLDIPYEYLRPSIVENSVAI

[5] = biological target: Beta-2 adrenergic receptor (Homo sapiens, UniProt P07550); assay: DRUGMATRIX: Adrenergic beta2 radioligand binding (ligand: [3H] CGP-12177); assay type: cell membranes, Membrane; settings: cho; Not Active = under 50% inhibition at 10 µM
Sequence of Beta-2 adrenergic receptor (P07550 whole entry): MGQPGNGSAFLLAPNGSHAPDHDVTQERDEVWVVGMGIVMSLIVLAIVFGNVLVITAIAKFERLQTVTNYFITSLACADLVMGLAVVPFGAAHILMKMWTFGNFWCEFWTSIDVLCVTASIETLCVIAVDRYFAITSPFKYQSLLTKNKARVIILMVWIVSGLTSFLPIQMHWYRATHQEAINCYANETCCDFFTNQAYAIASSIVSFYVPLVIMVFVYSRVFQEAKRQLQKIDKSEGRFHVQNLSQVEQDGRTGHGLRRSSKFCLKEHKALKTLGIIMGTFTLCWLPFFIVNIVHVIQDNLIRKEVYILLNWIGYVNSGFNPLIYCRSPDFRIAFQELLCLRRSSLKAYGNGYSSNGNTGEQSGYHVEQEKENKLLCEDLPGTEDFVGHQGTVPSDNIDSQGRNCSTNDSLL

[6] = biological target: T3, 5-hydroxytryptamine receptor 2C (Homo sapiens, UniProt P28335); assay: DRUGMATRIX: Serotonin (5-Hydroxytryptamine) 5-HT2C radioligand binding (ligand: [3H] Mesulergine); assay type: cell membranes, CHO-K1, Membrane; settings: Not Active = under 50% inhibition at 10 µM
T3 sequence (P28335 whole entry): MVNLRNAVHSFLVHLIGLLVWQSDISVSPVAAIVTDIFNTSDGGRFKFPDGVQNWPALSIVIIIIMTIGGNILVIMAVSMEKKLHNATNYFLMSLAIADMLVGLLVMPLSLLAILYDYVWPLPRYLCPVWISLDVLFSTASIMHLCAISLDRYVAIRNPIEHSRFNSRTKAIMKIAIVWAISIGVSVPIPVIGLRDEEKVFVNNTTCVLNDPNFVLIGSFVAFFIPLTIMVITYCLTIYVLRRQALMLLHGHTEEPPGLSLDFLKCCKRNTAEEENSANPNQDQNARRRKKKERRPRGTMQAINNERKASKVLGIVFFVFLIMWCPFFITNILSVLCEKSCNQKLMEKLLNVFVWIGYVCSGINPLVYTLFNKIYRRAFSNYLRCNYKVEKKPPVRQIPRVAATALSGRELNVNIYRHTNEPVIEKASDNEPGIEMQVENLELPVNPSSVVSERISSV

Row | Compound | IC50 [1] | Ki [1] | IC50 [2] | IC50 [3] | IC50 [4] | IC50 [5] | IC50 ([6]; cho-k1) | IC50 ([6]; read-out: IC50) | Ki ([6]; read-out: Ki)
1 | CCn1cc(C(=O)O)c(=O)c2cc(F)c(N3CCNCC3)cc21 [NORFLOXACIN] | Not Active | Not Active | Not Active | Not Active | Not Active | Not Active | Not Active | – | –
2 | NC1=NC(=O)C(c2ccccc2)O1 (stereo unspecified) [PEMOLINE] | Not Active | Not Active | Not Active | Not Active | Not Active | Not Active | Not Active | – | –
3 | Nc1nc2c(ncn2CCC(CO)CO)c(=O)[nH]1 [PENCICLOVIR] | Not Active | Not Active | Not Active | Not Active | Not Active | Not Active | Not Active | – | –
4 | C=C(C)C1(O)OC(=O)C=C1OC (stereo unspecified) [PENICILLIC ACID] | Not Active | Not Active | Not Active | Not Active | Not Active | Not Active | Not Active | – | –
5 | CC1(C)S[C@@H]2[C@H](NC(=O)Cc3ccccc3)C(=O)N2[C@H]1C(=O)O [PENICILLIN G] | Not Active | Not Active | Not Active | Not Active | Not Active | Not Active | Not Active | – | –
6 | C1CCC(C(CC2CCCCN2)C2CCCCC2)CC1 (stereo unspecified) [PERHEXILINE] | Not Active | Not Active | Not Active | Not Active | Not Active | Not Active | Not Active | – | –
7 | CCOc1ccc(NC(C)=O)cc1 [PHENACETIN] | Not Active | Not Active | Not Active | Not Active | Not Active | Not Active | Not Active | – | –
8 | CNNCc1ccc(C(=O)NC(C)C)cc1 [PROCARBAZINE] | Not Active | Not Active | Not Active | Not Active | Not Active | Not Active | Not Active | – | –
9 | CN(C)CCCN1c2ccccc2Sc2ccccc21 [PROMAZINE] | Not Active | Not Active | Not Active | Not Active | Not Active | Not Active | – | 99 nM | 52 nM
10 | CC(O)CO (stereo unspecified) [PROPYLENE GLYCOL] | Not Active | Not Active | Not Active | Not Active | Not Active | Not Active | Not Active | – | –
